Assay results published in PMC5199340, “RET Functions as a Dual-Specificity Kinase that Requires Allosteric Inputs from Juxtamembrane Elements” (Cell Reports, 2016).

Experiments:
RET [1] = molecular target: T1, RET (Homo sapiens, UniProt P07949); assay: isothermal titration calorimetry (ITC); type: binding
T1 construct: RET JM-KD (residues 661–1012)
T1 sequence (P07949 661-1012): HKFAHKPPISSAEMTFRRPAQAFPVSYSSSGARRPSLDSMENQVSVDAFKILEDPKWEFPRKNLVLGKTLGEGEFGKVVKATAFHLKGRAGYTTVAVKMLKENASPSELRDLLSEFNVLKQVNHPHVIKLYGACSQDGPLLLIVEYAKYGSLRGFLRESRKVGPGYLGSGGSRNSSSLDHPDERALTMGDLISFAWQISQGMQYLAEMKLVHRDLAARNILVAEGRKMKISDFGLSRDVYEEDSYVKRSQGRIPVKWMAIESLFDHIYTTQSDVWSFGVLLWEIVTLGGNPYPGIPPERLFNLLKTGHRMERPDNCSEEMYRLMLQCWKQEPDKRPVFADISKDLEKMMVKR

RET [2] = molecular target: T2, RET (Homo sapiens, UniProt P07949); assay: X-ray crystal structures ([…] Å and […] Å); type: binding
T2 construct: RET JM-KD (residues 659–1013), phosphorylated (Y809, Y905, S909, Y928)
T2 sequence (P07949 659-1013): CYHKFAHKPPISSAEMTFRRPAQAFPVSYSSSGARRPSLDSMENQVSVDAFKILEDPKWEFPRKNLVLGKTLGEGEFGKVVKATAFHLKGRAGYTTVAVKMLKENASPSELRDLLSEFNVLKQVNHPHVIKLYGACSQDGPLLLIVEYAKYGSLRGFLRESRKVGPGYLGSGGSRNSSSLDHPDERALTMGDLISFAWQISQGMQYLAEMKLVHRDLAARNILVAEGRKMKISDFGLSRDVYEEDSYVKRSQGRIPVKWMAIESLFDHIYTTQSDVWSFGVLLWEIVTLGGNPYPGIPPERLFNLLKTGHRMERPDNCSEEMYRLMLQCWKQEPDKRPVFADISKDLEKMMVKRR

Which Kd (RET [1]) does the source give for Nc1ncnc2c1ncn2[C@@H]1O[C@H](COP(=O)(O)OP(=O)(O)OP(=O)(O)O)[C@@H](O)[C@H]1O [ATP] here?
Its Kd is 37.5 ± 3.1 µM.

Cc1ccc(-c2nn(C(C)(C)C)c3ncnc(N)c23)cc1 [PP1] was tested. Which “X-ray crystal structures (2.95 Å and 3.3 Å)” value (RET [2]) did it give?
The value was “Both crystal structures contained the PP1 tyrosine kinase inhibitor in the nucleotide-binding pocket”.
